# Key:
# Kuramochi cells = assay: BrdU Cell Proliferation Assay; format: cell-based; settings: read-out: BrdU - KURAMOCHI.1: IC50
# Summary of the method: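 Signal is 450 nm absorbance from a peroxidase anti-BrdU ELISA after a 1-hour BrdU label, background-subtracted and normalized to DMSO-treated wells. Kuramochi cells (2,000 per well) had been exposed to compound for 4 days. Dosing used a 10-point dose response in 3-fold steps.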
# [1] = test system: Kuramochi cells labeled with mApple-H2B; assay: IncuCyte Cell Proliferation Assay; format: cell-based
# Summary of the method: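 GI50 came from dose-response fits of cell-count fold change between 0 and 72 h, normalized to DMSO controls. Counts were fluorescent nuclei from live-cell images over a 10-point, ½ log series starting at 20 μM.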
Structure (SMILES),IC50 (Kuramochi cells),IC50 ([1]; 72 h),IC50 ([1]; 72 hours)
CNC(=O)C(NC(=O)[C@@H]1CN(C(=O)c2cncs2)CC12CN(C(=O)[C@H]1CC1(C)C)C2)C(O)Cc1ccccc1 (some centres unmarked) [I-356],> 10 µM,> 20 µM,
C[C@@H](OCC1CCCCC1)[C@H](NC(=O)[C@@H]1CN(C(=O)c2cnn(C(F)(F)F)c2)CC12CN(C(=O)[C@H]1CC1(C)C)C2)C(=O)N1CCCCC1 [I-115],> 10 µM,5 to 20 µM,
CNC(=O)[C@@H](NC(=O)[C@H]1CN(C(=O)c2cnn(Cc3ccccc3)c2)CC12CN(C(=O)[C@H]1CC1(C)C)C2)[C@@H](C)OCCC1CCCCC1 [I-125B],0.5 to 5 µM,0.5 to 5 µM,
COC[C@H]1CCCN(C(=O)[C@@H](NC(=O)[C@@H]2CN(C(=O)c3cncs3)CC23CN(C(=O)[C@H]2CC2(C)C)C3)[C@@H](C)OCc2ccc(C(F)(F)F)cc2)C1 [I-319],≤ 0.5 µM,0.5 to 5 µM,
CNC(=O)[C@@H](NC(=O)[C@@H]1CN(C(=O)c2cncs2)CC12CN(C(=O)[C@H]1CC1(C)C)C2)C1(OCC2CCCCC2)CC1 [I-401],0.5 to 5 µM,0.5 to 5 µM,
C[C@@H](OC1(C2CCCCC2)CC1)[C@H](NC(=O)[C@@H]1CN(C(=O)c2cncs2)CC12CN(C(=O)[C@H]1CC1(C)C)C2)C(=O)N1CCCCC1 [I-357],5 to 10 µM,5 to 20 µM,
CNC(=O)[C@@H](NC(=O)[C@H]1CN(C(=O)c2scnc2C2CCCC2)CC12CN(C(=O)[C@H]1CC1(C)C)C2)[C@@H](C)OCC1CCCCC1 [I-224A],> 10 µM,> 20 µM,
CNC(=O)[C@@H](NC(=O)[C@@H]1CN(C(=O)c2cnn(Cc3ccccc3)c2)CC12CN(C(=O)[C@H]1CC1(C)C)C2)[C@@H](C)OCc1cccc(O)c1 [I-262],> 10 µM,> 20 µM,
C[C@@H]1C[C@H](C)CN(C(=O)[C@@H](NC(=O)C2CN(C(=O)c3cnn(Cc4ccccc4)c3)CC23CN(C(=O)[C@H]2CC2(C)C)C3)[C@@H](C)OCC2CCCCC2)C1 (some centres unmarked) [I-104],≤ 0.5 µM,0.5 to 5 µM,
COC[C@H]1CCCN(C(=O)[C@@H](NC(=O)[C@@H]2CN(C(=O)c3cncs3)CC23CN(C(=O)[C@H]2CC2(C)C)C3)[C@@H](C)OC(C)C2CCCCC2)C1 (some centres unmarked) [I-374],0.5 to 5 µM,0.5 to 5 µM,
C[C@@H](OCC1CCCCC1)[C@H](NC(=O)[C@@H]1CN(C(=O)c2cn[nH]c2)CC12CN(C(=O)[C@H]1CC1(C)C)C2)C(=O)N1CCCCC1 [I-151A],0.5 to 5 µM,0.5 to 5 µM,
CNC(=O)[C@@H](NC(=O)[C@@H]1CN(C(=O)c2cncs2)CC12CN(C(=O)[C@H]1CC1(C)C)C2)[C@H](O)CC1CCCCC1 [I-379],> 10 µM,> 20 µM,
"CNC(=O)[C@@H](NC(=O)[C@@H]1CN(C(=O)c2cnn(Cc3ccccc3)c2)CC12CN(C(=O)[C@H]1CC1(C)C)C2)[C@@H](C)NCC1CCCCC1 [I-269, (S)-6-(1-benzyl-1H-pyrazole-4-carbonyl)-N-((2S,3R)-3-((cyclohexylmethyl)amino)-1-(methylamino)-1-oxobutan-2-yl)-2-((S)-2,2-dimethylcyclopropane-1-carbonyl)-2,6-diazaspiro[3.4]octane-8-carboxamide]",> 10 µM,5 to 20 µM,
CNC(=O)[C@@H](NC(=O)[C@@H]1CN(C(=O)c2sc(COC)nc2C)CC12CN(C(=O)[C@H]1CC1(C)C)C2)[C@@H](C)OCC1CCCCC1 [I-162A],0.5 to 5 µM,5 to 20 µM,
CNC(=O)[C@@H](NC(=O)[C@@H]1CN(C(=O)c2cnn(Cc3ccccc3)c2)CC12CN(C(=O)[C@H]1CC1(C)C)C2)[C@@H](C)OCC(C)C [I-137A],> 10 µM,> 20 µM,
COC[C@H]1CCCN(C(=O)[C@@H](NC(=O)[C@@H]2CN(C(=O)c3cncs3)CC23CN(C(=O)[C@H]2CC2(C)C)C3)[C@@H](C)O[C@H](C)C2CCCCC2)C1 [I-367],0.5 to 5 µM,0.5 to 5 µM,
CNC(=O)[C@@H](NC(=O)[C@@H]1CN(C(=O)c2cncs2)CC12CN(C(=O)[C@H]1CC1(C)C)C2)[C@@H](C)OC[C@H]1CC[C@@H](C)CC1 [I-354],0.5 to 5 µM,≤ 0.5 µM,
COC[C@H]1CCCN(C(=O)[C@@H](NC(=O)[C@@H]2CN(C(=O)c3cncs3)CC23CN(C(=O)[C@H]2CC2(C)C)C3)[C@@H](C)OC(C)C2CCC(F)(F)CC2)C1 (some centres unmarked) [I-360],0.5 to 5 µM,0.5 to 5 µM,
C[C@@H](OCC1CCCCC1)[C@@H](COC1CCC(F)(F)CC1)NC(=O)[C@@H]1CN(C(=O)c2cnn(Cc3ccccc3)c2)CC12CN(C(=O)[C@H]1CC1(C)C)C2 [I-271],≤ 0.5 µM,≤ 0.5 µM,
C[C@@H](OCC1CCCCC1)[C@@H](CO)NC(=O)[C@H]1CN(C(=O)c2cnn(Cc3ccccc3)c2)CC12CN(C(=O)[C@H]1CC1(C)C)C2 [I-135B],> 10 µM,5 to 20 µM,
CNC(=O)C(NC(=O)[C@@H]1CN(C(=O)c2cncs2)CC12CN(C(=O)[C@H]1CC1(C)C)C2)c1cccc(N2CC3(COC3)C2)n1 (some centres unmarked) [I-427],> 10 µM,> 20 µM,

Structure (SMILES),IC50 (Kuramochi cells),IC50 ([1]; 72 h),IC50 ([1]; 72 hours)
COC[C@H]1CCCN(C(=O)[C@@H](NC(=O)[C@@H]2CN(C(=O)c3cncs3)CC23CN(C(=O)[C@H]2CC2(C)C)C3)[C@@H](C)O[C@H](C)C2CCCCC2)C1 [I-466],0.5 to 5 µM,,0.5 to 5 µM
CC1(C)C[C@@H]1C(=O)N1CC2(CN(C(=O)c3cnn(Cc4ccccc4)c3)C[C@@H]2C(=O)N[C@H]2CCc3cc(Cl)ccc32)C1 [I-133B],> 10 µM,> 20 µM,
"CNC(=O)[C@@H](NC(=O)[C@@H]1CN(C(=O)c2cnn(Cc3ccccc3)c2)CC12CN(C(=O)NC1CC1)C2)[C@@H](C)OCC1CCCCC1 [I-268, (S)-6-(1-benzyl-1H-pyrazole-4-carbonyl)-N8-((2S,3R)-3-(cyclohexylmethoxy)-1-(methylamino)-1-oxobutan-2-yl)-N2-cyclopropyl-2,6-diazaspiro[3.4]octane-2,8-dicarboxamide]",> 10 µM,> 20 µM,
C[C@@H](OCC1CCC(F)(F)CC1)[C@H](NC(=O)[C@@H]1CN(C(=O)c2cncs2)CC12CN(C(=O)[C@H]1CC1(C)C)C2)C(=O)N1CCC(O)CC1 [I-383],5 to 10 µM,0.5 to 5 µM,
CNC(=O)[C@@H](NC(=O)[C@@H]1CN(C(=O)c2cnn(Cc3ccccc3)c2)CC12CN(C(=O)C(C)C1CC1)C2)[C@@H](C)OCc1ccccc1 (some centres unmarked) [I-277],> 10 µM,> 20 µM,
C[C@@H](OCC1CCCCC1)[C@H](NC(=O)C1CN(C(=O)c2cnn(Cc3ccccc3)c2)CC12CN(C(=O)[C@H]1CC1(C)C)C2)C(=O)N1CCOCC1 (some centres unmarked) [I-152 mixture],≤ 0.5 µM,≤ 0.5 µM,
CNC(=O)C(NC(=O)[C@@H]1CN(C(=O)c2cncs2)CC12CN(C(=O)[C@H]1CC1(C)C)C2)c1cccc(C2CCCCC2)n1 (some centres unmarked) [I-362],0.5 to 5 µM,5 to 20 µM,
CNC(=O)[C@@H](NC(=O)[C@@H]1CN(C(=O)c2cncs2)CC12CN(C(=O)[C@H]1CC1(C)C)C2)[C@@H](C)OC(C)C1CCCCC1 (some centres unmarked) [I-279],0.5 to 5 µM,0.5 to 5 µM,
C[C@@H](OCC1CCOCC1)[C@@H](COC(F)(F)F)NC(=O)[C@@H]1CN(C(=O)c2cncs2)CC12CN(C(=O)[C@H]1CC1(C)C)C2 [I-428],> 10 µM,> 20 µM,
C[C@@H](OCC1CCC(F)(F)CC1)[C@H](NC(=O)[C@@H]1CN(C(=O)c2cncs2)CC12CN(C(=O)[C@H]1CC1(C)C)C2)C(=O)N1CCC[C@H](COC(F)(F)F)C1 [I-326],≤ 0.5 µM,≤ 0.5 µM,
"CNC(=O)[C@@H](NC(=O)[C@@H]1CN(C(=O)c2cnn(Cc3ccccc3)c2)CC12CN(C(=O)N(C)C(C)C)C2)[C@@H](C)OCC1CCCCC1 [I-274, (S)-6-(1-benzyl-1H-pyrazole-4-carbonyl)-N8-((2S,3R)-3-(cyclohexylmethoxy)-1-(methylamino)-1-oxobutan-2-yl)-N2-isopropyl-N2-methyl-2,6-diazaspiro[3.4]octane-2,8-dicarboxamide]",5 to 10 µM,5 to 20 µM,
CNC(=O)[C@@H](NC(=O)[C@@H]1CN(C(=O)c2cnc(C3CC3)s2)CC12CN(C(=O)[C@H]1CC1(C)C)C2)[C@@H](C)OCC1CCCCC1 [I-178A],> 10 µM,5 to 20 µM,
CNC(=O)[C@@H](NC(=O)[C@H]1CN(C(=O)c2cnc(Cl)s2)CC12CN(C(=O)[C@H]1CC1(C)C)C2)[C@@H](C)OCC1CCCCC1 [I-189B],> 10 µM,> 20 µM,
CNC(=O)[C@@H](NC(=O)[C@@H]1CN(C(=O)c2scnc2C(F)(F)F)CC12CN(C(=O)[C@H]1CC1(C)C)C2)[C@@H](C)OCC1CCCCC1 [I-163A],> 10 µM,> 20 µM,
CNC(=O)[C@@H](NC(=O)[C@@H]1CN(C(=O)c2cncs2)CC12CN(C(=O)[C@H]1CC1(C)C)C2)C1(OCc2ccccc2)CC1 [I-375],> 10 µM,> 20 µM,
COC[C@H]1CCCN(C(=O)[C@H](C)NC(=O)[C@@H]2CN(C(=O)c3cncs3)CC23CN(C(=O)[C@H]2CC2(C)C)C3)C1 [I-325],> 10 µM,> 20 µM,
CNC(=O)[C@@H](NC(=O)[C@@H]1CN(C(=O)c2cnc(COC(C)(C)C)s2)CC12CN(C(=O)[C@H]1CC1(C)C)C2)[C@@H](C)OCC1CCCCC1 [I-175A],≤ 0.5 µM,≤ 0.5 µM,
"CNC(=O)[C@@H](NC(=O)[C@@H]1CN(C(=O)c2cnn(Cc3ccccc3)c2)CC12CN(CC(=O)O)C2)[C@@H](C)OCC1CCCCC1 [I-294, 2-((S)-6-(1-benzyl-1H-pyrazole-4-carbonyl)-8-(((2S,3R)-3-(cyclohexylmethoxy)-1-(methylamino)-1-oxobutan-2-yl)carbamoyl)-2,6-diazaspiro[3.4]octan-2-yl)acetic acid]",> 10 µM,> 20 µM,
C[C@@H](OCC1(C(F)(F)F)CC1)[C@H](NC(=O)[C@@H]1CN(C(=O)c2cncs2)CC12CN(C(=O)[C@H]1CC1(C)C)C2)C(=O)N1CCCCC1 [I-285],,> 20 µM,
COC[C@H]1CCCN(C(=O)[C@@H](NC(=O)[C@@H]2CN(C(=O)c3cncs3)CC23CN(C(=O)[C@H]2CC2(C)C)C3)[C@@H](C)OC[C@H]2CC[C@H](N)CC2)C1 [I-433],,> 20 µM,
